Data taken from PMC10046369, “Low-Affinity/High-Selectivity Dopamine Transport Inhibition Sufficient to Rescue Cognitive Functions in the Aging Rat” (Biomolecules, 2023).

How the values were obtained:
Test in all cases: biochemical
Parameters in all cases: KINOMEscan competition binding panel, per cent of control
Conditions in all cases: read-out: %Ctrl @ 2800nM
ACVR2B = ACVR2B (Homo sapiens, UniProt Q13705)
Procedure: (§1) A panel of binding assays covering 450 human kinases and disease-relevant mutations was performed by DiscoverX (KINOMEscan®, Freemont, CA, USA) according to the standard and validated protocol defined by the contractor. […] Kinase binding assays This study was outsourced to DiscoverX (KINOMEscan®, Freemont, CA, USA) and is compliant with the corresponding project BUY004-01-p-00001. […] Results are reported as percent control (% Ctrl), where lower numbers indicate stronger hits in the matrix on the following page(s). %Ctrl calculation: ((test compound signal-positive control signal) / (negative control signal – positive control signal)) x 100.

AURKA = AURKA (Homo sapiens, UniProt O14965)
Procedure: as §1

CDK11 = biological target: T1, CDK11 (Homo sapiens, UniProt Q9BWU1)
T1 construct: gene CDK19
Procedure: as §1

CDKL5 = CDKL5 (Homo sapiens, UniProt O76039)
Procedure: as §1

CHEK2 = CHEK2 (Homo sapiens, UniProt O96017)
Procedure: as §1

CSF1R = CSF1R (Homo sapiens, UniProt P07333)
Sequence of CSF1R (P07333 whole entry): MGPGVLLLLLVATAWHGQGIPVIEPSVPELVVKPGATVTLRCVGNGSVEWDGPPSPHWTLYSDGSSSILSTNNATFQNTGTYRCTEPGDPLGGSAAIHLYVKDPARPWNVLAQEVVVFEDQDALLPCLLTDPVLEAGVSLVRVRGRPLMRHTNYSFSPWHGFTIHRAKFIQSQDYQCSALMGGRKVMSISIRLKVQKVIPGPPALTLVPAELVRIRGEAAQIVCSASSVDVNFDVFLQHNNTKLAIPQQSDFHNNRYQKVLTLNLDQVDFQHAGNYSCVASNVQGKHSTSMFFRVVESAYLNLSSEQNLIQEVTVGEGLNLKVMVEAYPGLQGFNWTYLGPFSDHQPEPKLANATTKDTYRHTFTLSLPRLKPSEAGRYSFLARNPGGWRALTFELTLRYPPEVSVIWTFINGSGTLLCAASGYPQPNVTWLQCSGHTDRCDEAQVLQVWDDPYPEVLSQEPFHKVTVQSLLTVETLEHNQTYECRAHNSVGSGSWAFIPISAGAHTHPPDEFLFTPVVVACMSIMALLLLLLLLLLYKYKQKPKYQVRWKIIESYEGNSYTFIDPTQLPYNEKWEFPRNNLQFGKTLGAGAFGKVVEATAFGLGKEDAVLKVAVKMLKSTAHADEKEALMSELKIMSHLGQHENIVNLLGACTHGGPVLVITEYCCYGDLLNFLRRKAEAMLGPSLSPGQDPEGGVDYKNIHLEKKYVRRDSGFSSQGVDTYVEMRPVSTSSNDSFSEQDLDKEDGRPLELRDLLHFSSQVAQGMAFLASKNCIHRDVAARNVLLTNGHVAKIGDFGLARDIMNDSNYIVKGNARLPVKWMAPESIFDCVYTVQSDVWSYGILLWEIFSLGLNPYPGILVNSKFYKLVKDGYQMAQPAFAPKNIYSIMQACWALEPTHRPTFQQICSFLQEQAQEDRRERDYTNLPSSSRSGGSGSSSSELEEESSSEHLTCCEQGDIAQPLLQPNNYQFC
Procedure: as §1

DYRK2 = DYRK2 (Homo sapiens, UniProt Q92630)
Procedure: as §1

ERK3 = biological target: T2, ERK3 (Homo sapiens, UniProt Q16659)
T2 construct: gene MAPK6
T2 sequence (Q16659 whole entry): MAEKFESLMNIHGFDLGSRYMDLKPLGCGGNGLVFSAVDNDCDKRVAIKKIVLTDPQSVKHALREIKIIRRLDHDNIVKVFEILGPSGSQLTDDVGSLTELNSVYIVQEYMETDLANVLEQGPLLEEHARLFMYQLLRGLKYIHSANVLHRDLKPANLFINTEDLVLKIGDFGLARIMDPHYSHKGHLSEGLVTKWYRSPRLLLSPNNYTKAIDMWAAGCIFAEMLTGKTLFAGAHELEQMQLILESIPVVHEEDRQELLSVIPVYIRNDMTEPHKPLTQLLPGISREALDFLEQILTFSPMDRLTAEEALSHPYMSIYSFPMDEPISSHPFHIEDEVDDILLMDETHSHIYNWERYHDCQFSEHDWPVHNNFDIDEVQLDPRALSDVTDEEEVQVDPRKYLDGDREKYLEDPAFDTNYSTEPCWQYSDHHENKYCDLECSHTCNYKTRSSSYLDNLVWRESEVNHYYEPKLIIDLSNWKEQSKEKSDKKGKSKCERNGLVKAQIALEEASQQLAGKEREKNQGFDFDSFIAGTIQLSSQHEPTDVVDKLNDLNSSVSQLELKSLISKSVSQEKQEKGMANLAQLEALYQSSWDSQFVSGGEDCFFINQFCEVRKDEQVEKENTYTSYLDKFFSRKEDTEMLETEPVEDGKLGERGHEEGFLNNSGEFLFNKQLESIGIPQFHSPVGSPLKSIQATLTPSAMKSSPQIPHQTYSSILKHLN
Procedure: as §1

FLT3(D835H) = FLT3(D835H) (Homo sapiens, UniProt P36888, D835H)
Procedure: as §1

HUNK = HUNK (Homo sapiens, UniProt P57058)
Sequence of HUNK (P57058 whole entry): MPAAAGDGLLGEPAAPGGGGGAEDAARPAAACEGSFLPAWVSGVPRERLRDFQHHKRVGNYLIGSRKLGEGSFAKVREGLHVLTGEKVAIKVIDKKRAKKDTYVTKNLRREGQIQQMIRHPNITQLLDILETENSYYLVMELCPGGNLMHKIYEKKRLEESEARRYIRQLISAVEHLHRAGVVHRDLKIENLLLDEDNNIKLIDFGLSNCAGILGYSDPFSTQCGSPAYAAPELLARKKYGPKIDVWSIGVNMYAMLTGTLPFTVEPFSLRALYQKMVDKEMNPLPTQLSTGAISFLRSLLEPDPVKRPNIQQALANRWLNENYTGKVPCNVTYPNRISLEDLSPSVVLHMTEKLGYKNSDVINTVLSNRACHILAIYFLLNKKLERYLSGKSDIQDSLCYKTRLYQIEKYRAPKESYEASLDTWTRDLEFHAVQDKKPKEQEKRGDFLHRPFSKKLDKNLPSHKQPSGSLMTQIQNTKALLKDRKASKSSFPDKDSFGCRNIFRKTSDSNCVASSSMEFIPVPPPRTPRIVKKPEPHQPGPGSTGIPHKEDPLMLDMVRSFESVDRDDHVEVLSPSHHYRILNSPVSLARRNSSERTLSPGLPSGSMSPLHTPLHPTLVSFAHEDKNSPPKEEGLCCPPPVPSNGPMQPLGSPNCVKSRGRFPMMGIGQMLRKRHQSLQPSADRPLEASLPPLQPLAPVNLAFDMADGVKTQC
Procedure: as §1

[1] = biological target: T3, JAK1(JH2domain-pseudokinase) (Homo sapiens, UniProt P23458)
T3 construct: JH2domain-pseudokinase
Procedure: as §1

LCK = LCK (Homo sapiens, UniProt P06239)
Procedure: as §1

LIMK1 = LIMK1 (Homo sapiens, UniProt P53667)
Sequence of LIMK1 (P53667 whole entry): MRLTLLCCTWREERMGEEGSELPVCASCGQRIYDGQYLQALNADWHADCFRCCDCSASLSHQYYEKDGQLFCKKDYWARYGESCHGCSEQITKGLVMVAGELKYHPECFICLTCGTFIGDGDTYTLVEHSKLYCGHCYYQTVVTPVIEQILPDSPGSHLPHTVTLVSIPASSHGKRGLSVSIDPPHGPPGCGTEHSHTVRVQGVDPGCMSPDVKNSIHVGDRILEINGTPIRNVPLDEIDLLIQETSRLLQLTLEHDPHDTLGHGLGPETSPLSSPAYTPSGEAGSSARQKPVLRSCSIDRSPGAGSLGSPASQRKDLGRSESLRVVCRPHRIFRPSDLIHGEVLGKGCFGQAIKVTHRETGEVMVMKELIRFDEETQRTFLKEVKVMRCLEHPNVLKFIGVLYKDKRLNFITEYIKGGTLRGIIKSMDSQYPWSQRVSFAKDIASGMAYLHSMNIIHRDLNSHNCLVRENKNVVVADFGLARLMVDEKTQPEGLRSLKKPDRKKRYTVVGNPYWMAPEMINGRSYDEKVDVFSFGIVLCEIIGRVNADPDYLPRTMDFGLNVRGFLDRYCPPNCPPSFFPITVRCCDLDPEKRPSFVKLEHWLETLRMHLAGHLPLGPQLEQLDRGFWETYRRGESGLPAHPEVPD
Procedure: as §1

MARK4 = MARK4 (Homo sapiens, UniProt Q96L34)
Procedure: as §1

MLK1 = biological target: T4, MLK1 (Homo sapiens, UniProt P80192)
T4 construct: gene MAP3K9
Procedure: as §1

NEK3 = NEK3 (Homo sapiens, UniProt P51956)
Procedure: as §1

NEK6 = NEK6 (Homo sapiens, UniProt Q9HC98)
Procedure: as §1

NIM1 = biological target: T5, NIM1 (Homo sapiens, UniProt Q8IY84)
T5 construct: gene NIM1K
Procedure: as §1

PIM3 = PIM3 (Homo sapiens, UniProt Q86V86)
Procedure: as §1

PIP5K2B = biological target: T6, PIP5K2B (Homo sapiens, UniProt P78356)
T6 construct: gene PIP4K2B
T6 sequence (P78356 whole entry): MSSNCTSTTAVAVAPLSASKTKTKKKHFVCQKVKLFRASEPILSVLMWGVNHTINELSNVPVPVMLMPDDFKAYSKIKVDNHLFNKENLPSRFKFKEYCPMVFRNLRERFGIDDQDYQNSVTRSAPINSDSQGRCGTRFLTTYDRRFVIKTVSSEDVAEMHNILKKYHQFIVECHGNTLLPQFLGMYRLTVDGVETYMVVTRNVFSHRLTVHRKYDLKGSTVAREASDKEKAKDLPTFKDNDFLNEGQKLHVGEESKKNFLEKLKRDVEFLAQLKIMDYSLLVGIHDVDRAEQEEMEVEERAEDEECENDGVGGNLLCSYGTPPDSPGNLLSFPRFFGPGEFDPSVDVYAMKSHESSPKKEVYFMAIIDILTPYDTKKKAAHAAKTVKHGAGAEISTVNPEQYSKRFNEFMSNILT
Procedure: as §1

PKAC-alpha = biological target: T7, PKAC-alpha (Homo sapiens, UniProt P17612)
T7 construct: gene PRKACA
Procedure: as §1

PRKCH = PRKCH (Homo sapiens, UniProt P24723)
Procedure: as §1

[2] = biological target: T8, RSK2(Kin.Dom.1-N-terminal) (Homo sapiens, UniProt P51812)
T8 construct: gene RPS6KA3; Kin.Dom.1-N-terminal
Procedure: as §1

[3] = biological target: T9, RSK3(Kin.Dom.1-N-terminal) (Homo sapiens, UniProt Q15349)
T9 construct: gene RPS6KA2; Kin.Dom.1-N-terminal
Procedure: as §1

SGK = biological target: T10, SGK (Homo sapiens, UniProt O00141)
T10 construct: gene SGK1
T10 sequence (O00141 whole entry): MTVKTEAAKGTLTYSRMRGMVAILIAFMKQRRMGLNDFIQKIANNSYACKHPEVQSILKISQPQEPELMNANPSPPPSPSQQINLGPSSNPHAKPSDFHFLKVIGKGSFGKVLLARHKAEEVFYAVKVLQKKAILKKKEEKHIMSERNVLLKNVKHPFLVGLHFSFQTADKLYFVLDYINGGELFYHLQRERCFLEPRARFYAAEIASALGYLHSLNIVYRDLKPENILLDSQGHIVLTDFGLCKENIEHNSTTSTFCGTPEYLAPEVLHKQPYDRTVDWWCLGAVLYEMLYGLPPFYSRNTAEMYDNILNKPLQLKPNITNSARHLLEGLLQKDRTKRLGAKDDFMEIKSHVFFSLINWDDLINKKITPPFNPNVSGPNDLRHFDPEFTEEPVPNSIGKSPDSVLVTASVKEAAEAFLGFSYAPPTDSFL
Procedure: as §1

TIE2 = biological target: T11, TIE2 (Homo sapiens, UniProt Q02763)
T11 construct: gene TEK
T11 sequence (Q02763 whole entry): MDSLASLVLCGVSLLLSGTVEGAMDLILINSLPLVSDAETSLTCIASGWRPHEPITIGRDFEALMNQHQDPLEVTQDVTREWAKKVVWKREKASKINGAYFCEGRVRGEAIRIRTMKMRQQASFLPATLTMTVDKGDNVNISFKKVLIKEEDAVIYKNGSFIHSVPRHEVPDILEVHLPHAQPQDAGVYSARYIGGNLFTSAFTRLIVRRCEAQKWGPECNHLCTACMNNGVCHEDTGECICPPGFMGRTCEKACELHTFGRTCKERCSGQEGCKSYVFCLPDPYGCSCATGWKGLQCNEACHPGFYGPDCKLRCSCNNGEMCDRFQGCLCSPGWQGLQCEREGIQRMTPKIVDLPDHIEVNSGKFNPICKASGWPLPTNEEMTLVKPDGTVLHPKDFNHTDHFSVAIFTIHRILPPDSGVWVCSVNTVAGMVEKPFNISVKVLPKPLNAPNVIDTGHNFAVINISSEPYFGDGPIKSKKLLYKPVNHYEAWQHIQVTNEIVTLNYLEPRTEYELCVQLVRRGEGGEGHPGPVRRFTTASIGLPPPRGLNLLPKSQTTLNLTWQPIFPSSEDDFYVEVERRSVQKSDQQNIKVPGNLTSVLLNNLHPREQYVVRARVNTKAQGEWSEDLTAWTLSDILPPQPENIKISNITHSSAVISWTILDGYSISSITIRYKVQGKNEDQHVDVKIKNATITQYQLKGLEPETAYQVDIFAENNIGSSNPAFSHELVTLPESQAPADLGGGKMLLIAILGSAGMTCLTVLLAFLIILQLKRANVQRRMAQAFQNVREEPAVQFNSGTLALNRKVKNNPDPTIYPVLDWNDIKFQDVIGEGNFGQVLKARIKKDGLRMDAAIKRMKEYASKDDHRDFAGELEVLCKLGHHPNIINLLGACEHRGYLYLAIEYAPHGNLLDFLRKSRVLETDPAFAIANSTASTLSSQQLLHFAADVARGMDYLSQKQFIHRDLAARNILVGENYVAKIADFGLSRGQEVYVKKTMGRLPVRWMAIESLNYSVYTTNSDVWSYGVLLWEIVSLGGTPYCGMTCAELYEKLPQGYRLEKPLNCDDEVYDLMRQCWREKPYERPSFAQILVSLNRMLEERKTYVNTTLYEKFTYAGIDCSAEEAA
Procedure: as §1

[O-][S@@+](Cc1cncs1)C(c1ccccc1)c1ccccc1 [S-CE-123, (S)-5-((Benzhydrylsulfinyl)Methyl)Thiazole]
remaining binding at 2.8 µM (ACVR2B): 100%
remaining binding at 2.8 µM (AURKA): 91%
remaining binding at 2.8 µM (CDK11): 71%
remaining binding at 2.8 µM (CDKL5): 97%
remaining binding at 2.8 µM (CHEK2): 78%
remaining binding at 2.8 µM (CSF1R): 76%
remaining binding at 2.8 µM (DYRK2): 86%
remaining binding at 2.8 µM (ERK3): 93%
remaining binding at 2.8 µM (FLT3(D835H)): 58%
remaining binding at 2.8 µM (HUNK): 100%
remaining binding at 2.8 µM [1]: 92%
remaining binding at 2.8 µM (LCK): 100%
remaining binding at 2.8 µM (LIMK1): 98%
remaining binding at 2.8 µM (MARK4): 98%
remaining binding at 2.8 µM (MLK1): 100%
remaining binding at 2.8 µM (NEK3): 100%
remaining binding at 2.8 µM (NEK6): 100%
remaining binding at 2.8 µM (NIM1): 97%
remaining binding at 2.8 µM (PIM3): 100%
remaining binding at 2.8 µM (PIP5K2B): 100%
remaining binding at 2.8 µM (PKAC-alpha): 95%
remaining binding at 2.8 µM (PRKCH): 100%
remaining binding at 2.8 µM [2]: 100%
remaining binding at 2.8 µM [3]: 100%
remaining binding at 2.8 µM (SGK): 94%
remaining binding at 2.8 µM (TIE2): 100%
